Values joined by “and” are separate entries in the source; they are usually repeats but may differ in a detail not shown here. Equal entries are not always repeated.
Experiments:
MRSA biofilm = experiment: EBEC, high number biofilms on PEEK membranes (10^9 to 10^2 CFU/PEEK membrane in 24 hours); assay type: cell-based, methicillin-resistant Staphylococcus aureus; details: for EBEC, MRSA: Table 4
Protocol: (§1) In addition to determining the MIC and the MBEC of polyamine compounds against planktonic bacteria and low number biofilms, our group wanted to determine the efficacy of polyamine compounds against high number biofilms. To do so, biofilms were grown on the surface of polyetheretherketone (PEEK) membranes using a membrane biofilm reactor. This reactor is similar to the CDC biofilm reactor, but rather than growing biofilms on coupon surfaces, the reactor was modified to hold PEEK membranes. In short, to grow biofilms within this system, 500 mL of brain heart infusion (BHI) broth were inoculated with 1 mL of a 0.5 McFarland. The reactor was placed on a hot plate set at 34° C. and the bacteria were grown under batch conditions for 24 hours. Following this protocol, biofilms typically grow to 10^9 CFU/PEEK membrane. […] A solution of 10% BHI was then flowed through the reactor at a rate of 6.94 mL/min for an additional 24 hours. PEEK membranes were then removed and placed into 2 mL of CAMHB that contained a desired concentration of polyamine compound or antibiotic. The EBEC was defined as the concentration of antimicrobial required to reduce a biofilm from approximately 10^9 CFU/PEEK membrane to approximately 10^2 CFU/PEEK membrane in a 24-hour period.
(§2) In addition to determining the MIC and the MBEC of compounds against planktonic bacteria and low number biofilms, the efficacy of the compounds of the invention against high number biofilms is determined. To do so, biofilms are grown on the surface of PEEK membranes using a membrane biofilm reactor (Williams, D. L., Haymond, B. S. & Bloebaum, R. D. Use of delrin plastic in a modified CDC biofilm reactor. Res J Microbiol 6, 425-429 (2011); Williams, D. L., Woodbury, K. L., Haymond, B. S., Parker, A. E. & Bloebaum, R. D. A modified CDC biofilm reactor to produce mature biofilms on the surface of PEEK membranes for an in vivo animal model application. Curr Microbiol 62, 1657-1663 (2011); Williams, D. L. et al., In Vivo Efficacy of a Silicone—Cationic Steroid Antimicrobial Coating to Prevent Implant-Related Infection. Biomaterials 33, 8641-8656 (2012); Williams, D. L. et al., Experimental model of biofilm implant-related osteomyelitis to test combination biomaterials using biofilms as initial inocula. J Biomed Mat Res A 100, 1888-1900 (2012)). This reactor is similar to the CDC biofilm reactor, but rather than growing biofilms on coupon surfaces, the reactor was modified to hold PEEK membranes. In short, to grow biofilms within this system, 500 mL of brain heart infusion (BHI) broth is inoculated with 1 mL of a 0.5 McFarland. The reactor is placed on a hot plate set at 34° C. and the bacteria grown under batch conditions for 24 hours. A solution of 10% BHI will then be flowed through the reactor at a rate of 6.94 mL/min for an additional 24 hours. Following this protocol, biofilms typically grow to 10^9 CFU/PEEK membrane. PEEK membranes is removed and placed into 2 mL of CAMHB that contain a desired concentration of the test compound. The EBEC is defined as the concentration of antimicrobial required to reduce a biofilm from approximately 10^9 CFU/PEEK membrane to approximately 10^2 CFU/PEEK membrane in a 24-hour period.
EBEC data were collected to determine the efficacy of CZ-52, CZ-58 and traditional antibiotics against high number biofilms containing approximately 10^9 CFU grown on the surface of a polyetheretherketone (PEEK) membrane.

A. baumannii biofilm [1] = experiment: as above; assay type: cell-based, Acinetobacter baumannii; details: Table 3B titled MICs, group head missing, values match EBEC; for MIC: Acinetobacter baumannii
MRSA = experiment: MIC in CAMHB, 96-well plate (10^5 to 10^2 CFU/mL in 24 hours); assay type: cell-based, methicillin-resistant Staphylococcus aureus; details: Staphylococcus aureus, MRSA
Protocol: To determine the MIC of polyamine compounds, the protocol described herein was used.
In brief, a 0.5 McFarland of each bacterial isolate was made. A 0.5 McFarland is a measure of turbidity in a liquid sample that contains approximately 1×10̂^8 CFU/mL. The 0.5 McFarland standard was diluted in cation adjusted Mueller Hinton Broth (CAMHB), and […], of broth were added to a well of a 96-well plate. In addition, 50 μL of CAMHB that contained a desired concentration of antimicrobial were also added to the well for a final volume of 100 and a final concentration of approximately 5×10^4 CFU/well (which equated to approximately 5×10^5 CFU/mL). Each well contained a desired amount of polyamine compound in order to experimentally determine the MIC. Each 96-well plate was incubated at 37° C. for 24 hours. The contents of each well were plated on tryptic soy agar (TSA). TSA plates were incubated for 37° C. for 24 hours after which the number of CFU were counted and used to calculate the CFU/mL that remained after exposure to varying concentrations of compound. This procedure was repeated n=8 times for each concentration of antimicrobial. […]

A. baumannii biofilm [2] = experiment: EBEC, high number biofilms on PEEK membranes (10^9 to 10^2 CFU/PEEK membrane in 24 hours); assay type: cell-based, Acinetobacter baumannii; details: for EBEC, A. baumannii: Table 4; for EBEC relative to MIC against A. baumannii: EBEC greater than the MIC by this factor
Protocol: as §1, §2
EBEC data were collected to determine the efficacy of CZ-52, CZ-58 and traditional antibiotics against high number biofilms containing approximately 10^9 CFU grown on the surface of a polyetheretherketone (PEEK) membrane. […] In contrast, at 250 μg/mL CZ-52 was able to reduce MRSA biofilms by greater than 7 log10 units in a 24-hour period. Although the MIC of CZ-58 was lower against MRSA compared to A. baumannii, CZ-58 had greater activity against biofilms of A. baumannii than against MRSA biofilms in the EBEC assay. […] Although the MIC of CZ-58 was “high” compared to MICs of traditional antibiotics, the efficacy against biofilms was promising.

NCCCNCCCNCc1cccc(CNCCCNCCCN)c1 [CZ-25]
EBEC, MRSA (MRSA biofilm): > 5,000 μg/mL and 13,715 μM
MIC (A. baumannii biofilm [1]): > 5000 µg/mL
MIC (MRSA; Table 3A, first MRSA column): 40 µg/mL
MIC (MRSA; Table 4): 40 µg/mL and 110 µM
EBEC, A. baumannii (A. baumannii biofilm [2]): ~7,500 μg/mL

NCCCNCCCNCc1cc(CNCCCNCCCN)cc(CNCCCNCCCN)c1 [CZ-52]
EBEC, MRSA (MRSA biofilm): 250 μg/mL and 500 μM
reduction of MRSA biofilms (MRSA biofilm; at 250 μg/mL, 24-hour period): greater than 7 log10 units
MIC (A. baumannii biofilm [1]): > 5000 µg/mL
MIC (MRSA; Table 3A, first MRSA column): 3 µg/mL
MIC (MRSA; Table 4): 3 µg/mL and 6 µM
EBEC, A. baumannii (A. baumannii biofilm [2]): ~7,000 μg/mL and ~14,000 μM

NCCCNCCCNCc1cc(CNCCCNCCCN)cc(-c2ccccc2)c1 [CZ-58]
EBEC, MRSA (MRSA biofilm): 1,500 μg/mL and 3,403 μM
MIC (MRSA; Table 4): 6 µg/mL and 13.6 µM
MIC (MRSA; Table 5, class symbols): < 50 µM
EBEC relative to MIC against A. baumannii (A. baumannii biofilm [2]): ~13 ×
EBEC, A. baumannii (A. baumannii biofilm [2]): 400 μg/mL and 908 μM
activity against A. baumannii biofilms relative to MRSA biofilms (A. baumannii biofilm [2]; greater activity against A. baumannii biofilms): 10 fold

Polymyxin B sulfate [reference compound]
MIC, A. baumannii (A. baumannii biofilm [1]): 1,000 μg/mL
EBEC relative to MIC against A. baumannii (A. baumannii biofilm [2]): 1,000 ×
EBEC, A. baumannii (A. baumannii biofilm [2]): 1,000 μg/mL and 722 μM
